Data on 1 sequence can be found in article PMC2862740, “Furin Targeted Drug Delivery for Treatment of Rhabdomyosarcoma in a Mouse Model” (PLoS ONE, 2010).

The assay has as its system RMS cells (RD, Rh4, Rh30). The assay is described as follows: phage binding to RMS cell lines versus normal cells. It is filed as cell-based. Conditions: control phage. As to the method: Figure 1 Validation of selected phages binding on RMS cells in vivo and in vitro. (A) Quantification of binding of single phage clones to different cell lines. Six phages selected from in vitro and in vivo screenings were validated individually in binding assays to three RMS cell lines (embryonal RMS: RD; alveolar RMS: Rh30 and Rh4) as well as to normal myoblasts (SkMC-c) and fibroblast cells (MRC-5). Phage clones are ordered according to the frequency of occurrence. Binding was calculated over non-recombinant T7, depicted are mean values ± SD of three independent experiments. (B) RMS-P3 and RMS-P6 phage distribution in RD mouse xenografts. Homing of phages to tumor was compared to control organs. Binding was normalized over phage T7 and tissue weight. Mean values ± SD of four independent experiments are shown. Numerical values for tumor to organ ratios are indicated above the bars. (C) Validation of RMS-P3 peptide sequence by competition of phage binding. 10^6 RD cells were incubated for 30 min with increasing concentrations of RMS-P3 peptide ([…]) or control peptide ([…]). Then, phages (10^9 pfu) were added for 1 h. Phage binding was normalized over non-recombinant T7. Data are presented as percentage of maximal phage binding obtained in the absence of synthetic peptide. Error bars indicate mean ± SD from three independent experiments. […]

Positions of bridges follow the written chain, without caps; N, C: chain ends. No end group written: not given here.

As to “CSPNNTRRPNKC (disulfide 1-12 (inferred)) [phage RMS-Pctrl, phage displaying […], arose spontaneously during the in vitro screening; negative control]”, the “binding to tumor cells” value was “no binding to tumor cells”.
